According to patent publication US5104859A, “Continuous administration of adenosine to reduce pulmonary vascular resistance” (priority 1990, dated 1992):
Entries after “also recorded” stand apart in the source; their conditions may differ. Where two headings read alike, the source gives them in different places.

Columns and labels:
[1] = Plasma adenosine and metabolite concentrations during cardiopulmonary bypass (HPLC); details: for concentration: read-out: Venous concentration, 20 min
Experimental: In six cases the plasma adenosine levels were determined by high performance liquid chromatography (HPLC) (Fredholm and Sollevi, J. Physiol. (London), 313: 351-67 (1981) in arterial and in venous (venous lines to the oxygenator) blood. The adenosine metabolites inosine, hypoxanthine and uric acid were also determined by HPLC. The samples were collected as previously described (Sollevi, Acta. Physiol. Scand., 121: 165-72 (1984) at the intervals of 10, 20, 40 and 80 minutes during CPB and 20 minutes after CPB.
Statistical significance (controls v. adenosine group) was determinted with Student's t-test for unpaired data. For significance within the groups the Wilcoxon Rank Sum test was used. p […] 0.05 was regarded as significant.

[2] = Purine levels in arterial plasma before, during and after adenosine-induced controlled hypotension (HPLC); details: for concentration: Table I, mean ± SEM
Experimental: (§1) Blood gases were measured with appropriate electrodes for pH, PCO2, and PO2 (Radiometer, Copenhagen). The hemoglobin concentration was determined spectrophotometrically. Samples for the determination of adenosine and its metabolites were collected as described by Sollevi et al., Acta Physiol. Scand., 120: 171-76 (1984). Adenosine and inosine were purified and analyzed by HPLC as described by Fredholm and Sollevi., J. Physiol. (London), 313: 351-67 (1981). Hypoxanthine, xanthine, and uric acid were analyzed by HPLC according to the method of Schweinsberg and Loo., J. Chromatogr., 181: 103-7 (1980). Arterial levels of dipyridamole were determined by HPLC. J. Chromatogr., 162: 98-103 (1979). Blood lactate was measured according to Tfelt-Hansen and Siggard-Andersen. Scand. Clin. Lab. Invest., 27:15-19 (1971).
(§2) Measurements and blood samplings were performed immediately before hypotension, as late as possible during hypotension (1-5 min before terminating the infusion) and approximately 30 min after the hypotensive period.
(§3) Dipyridamole (5 mg. per ml) was infused iv (0.3-0.4 mg. per kg. over a period of 5-10 min) approximately 20 minutes prior to the induction of controlled hypotension. […] (See Pedersen, J. Chromatogr., 162: 98-103 (1979).
(§4) The infusion was started at a rate of 0.01 mg. per kg. per minute, which was doubled at 15 second intervals until the desired MABP level of 40-50 mmHg was reached. […] Serum creatinine was determined before and on two consecutive days after operation. The standard ECG was recorded the day before and the day after operation.
(§5) The statistical significance (control 1 vs. adenosine and control 1 vs. control 2) was determined by Student's t test for paired data. A P value of <0.05 was regarded as significant.
The purine levels of nine of the patients were determined prior to, during and after adenosine-induced controlled hypotension.

[3] = test system: cardiovascular system; details: cited from earlier work
[4] = test system: mean arterial blood pressure; details: dipyridamole 1 mg/kg, dogs; cited from earlier work
[5] = test system: systemic arterial blood pressure and central hemodynamics; assay: Controlled hypotension during anesthesia: central hemodynamics (dipyridamole-pretreated cerebral aneurysm surgery patients); details: in five of the patients
Experimental: One hour before the operation the patients were premedicated orally with diazepam (10-20 mg.) Atropine (0.5 mg) and droperidol (0.1 mg. per kg.) were given intravenously before induction of anesthesia. Induction was started with thiopental (5 mg. per kg) followed by phenoperidine (1-2 mg), a synthetic opiate with pharmacodymanics resembling fentanyl but with a longer duration of action and 1/10 of its analgesic potency.
Pancuronium bromide (0.1 mg per kg) was given to facilitate endotracheal intubation. Anesthesia was maintained by supplementary doses of phenoperidine and droperidol, as required. […] Phenoperidine was supplemented regularly to prevent the blood pressure from exceeding the preanesthetic level (approx. 1 mg/30-60 min). Controlled hyperventilation was employed with a humidified gas mixture of 60% N2 O in oxygen to maintain PaCO2 values at approximately 30 mmHg (±1.5/SEM). Mannitol (1-1.5 g. per kg) was given routinely at the start of the operation (e.g., 1-2 hours prior to the controlled hypotension). The patients were operated on in the horizontal supine position.
A 1.2-mm plastic cannula was introduced into the left radial artery to monitor systemic arterial blood pressure (MABP) and collect arterial blood. A balloon-tipped, flow-directed, quadruple lumen Swan-Ganz catheter (Model 93A-831-7.5 F, VIP) was inserted percutaneously via the left basilic vein, and its correct position in the pulmonary artery was determined by pressure tracings. The catheter was used for the monitoring of mean right atrial pressure (RAP), mean pulmonary artery pressure (PAP), and mean pulmonary capillary wedge pressure (PCWP) for the determination of cardiac output and collection of mixed venous blood and for the infusion of adenosine. Another plastic cannula was introduced percutaneously, in a retrograde direction, into the right jugular bulb for the collection of blood. The correct position was verified by x-ray.
The ECG was monitored with a standard chest (V5) lead. Heart rate was determined from the R-R interval. Blood pressures were measured by transducers placed at the midthoracic level. Cardiac output (QT) was determined in triplicate according to the thermodilution technique with a cardiac output computer (Edwards Lab, model 9510). Isotonic glucose, 10 ml at 1° C., was used as a thermal indicator. The ECG, heart rate, blood pressures, and thermodilution curves were recorded on a Grass® polygraph.
as §2, §3, §4
Systemic vascular resistance (SVR) was derived from the formula [formula] and pulmonary vascular resistance (PVR) from the formula [formula]
as §5

[6] = test system: heart muscle; details: injection; cited from earlier work
[7] = Plasma level of dipyridamole (HPLC); format: in vivo, human; details: 0.3-0.4 mg/kg iv over 5-10 min; SEM; read-out: dipyridamole plasma level during hypotensive periods
Experimental: as §1, §3

[8] = test system: adenosine uptake by red blood cells; details: cited from earlier work
[9] = test system: myocardial blood flow; details: investigated in abdominal vascular surgery; words; cited from earlier work
[10] = CPB 10', adenosine infusion 0.1 mg/kg/min, n = 6
[11] = CPB 20', adenosine infusion 0.1 mg/kg/min, n = 6
[12] = CPB 40', adenosine infusion 0.1 mg/kg/min, n = 6
[13] = CPB 80', adenosine infusion 0.1 mg/kg/min, n = 6
[14] = during / after adenosine infusion, in words
[15] = read-out: Purine level in arterial plasma, after hypotension, 20-40 min, 20-40 min after hypotension
[16] = read-out: Purine level in arterial plasma, during hypotension, during i.v. adenosine infusion, dipyridamole-pretreated
[17] = human, venous plasma, iv, 0.1 mg/kg/min, Venous concentration

O=c1[nH]c(=O)c2[nH]c(=O)[nH]c2[nH]1 [Uric Acid, uric acid]
Arterial concentration ([1]; 20' post CPB, n = 6): 260 ± 34 µM
Arterial concentration [1, 10]: 260 ± 32 µM
Arterial concentration [1, 11]: 269 ± 35 µM
Arterial concentration [1, 12]: 250 ± 32 µM
Arterial concentration [1, 13]: 249 ± 30 µM
change of adenosine metabolite levels [2, 14]: unaffected
concentration [2, 15]: 200000 ± 28800 nM
concentration [2, 16]: 198000 ± 22700 nM

OC[C@H]1O[C@@H](n2cnc3c(O)ncnc32)[C@H](O)[C@@H]1O [Inosine, inosine]
Arterial concentration ([1]; 20' post CPB, n = 6): 0.4 ± 0.1 µM
Arterial concentration [1, 10]: 1.3 ± 0.7 µM
Arterial concentration [1, 11]: 2.5 ± 1.0 µM
Arterial concentration [1, 12]: 1.2 ± 0.3 µM
Arterial concentration [1, 13]: 1.4 ± 0.4 µM
concentration at 10 min [1, 17]: 900 ± 300 nM
concentration at 40 min [1, 17]: 1600 ± 500 nM
concentration at 80 min [1, 17]: 1600 ± 400 nM
metabolite elevation during infusion ([1]; in vivo): consistently elevated
concentration ([1]; 20' post CPB, n = 6): 400 ± 100 nM
concentration [1, 11]: 2400 ± 1200 nM
change of adenosine metabolite levels [2, 14]: remained slightly above basal levels 20-40 minutes after the infusion
change of adenosine metabolite levels ([2]; during / after adenosine infusion, in words, listed as inosine): increased during the infusion
concentration ([2]; read-out: Purine level in arterial plasma, after hypotension, 3-9 min, 3-9 min after hypotension): 690 ± 260 nM
concentration [2, 15]: 290 ± 150 nM
concentration [2, 16]: 3010 ± 1480 nM

COc1cc2nc(N3CCN(C(=O)c4ccco4)CC3)nc(N)c2cc1OC [prazosin]
heart rate ([3]; in vivo): increase heart rate
onset and predictability of action ([3]; in vivo): slow onset and unpredictable action

O=c1[nH]c(=O)c2[nH]cnc2[nH]1 [Xanthine, xanthine]
change of adenosine metabolite levels ([2]; in vivo): unaffected

OCCN(CCO)c1nc(N2CCCCC2)c2nc(N(CCO)CCO)nc(N3CCCCC3)c2n1 [dipyridamole]
reduction of mean arterial blood pressure by dipyridamole [4]: 20%
decrease of MABP by dipyridamole infusion [5]: approximately 10 mmHg
redistribution of flow within heart muscle [6]: augment the redistribution of flow within the heart muscle
concentration [7]: 1200 ± 300 nM
adenosine uptake inhibition [8]: inhibiting cellular uptake of adenosine
adenosine uptake inhibition ([8]; listed as Dipryridamol): adenosine uptake inhibitor

O=c1[nH]cnc2nc[nH]c12 [Hypoxanthine, hypoxanthine]
Arterial concentration ([1]; in vivo): 4.2 ± 0.9 µM
change of adenosine metabolite levels ([2]; in vivo): increased during the infusion

FC(F)OC(Cl)C(F)(F)F (stereo not drawn) [isoflurane]
coronary flow / coronary blood flow [9]: no beneficial effect; also recorded: may reduce coronary blood flow
cardiac blood flow ([3]; in vivo): tendency to reduce cardiac blood flow

CCCCC[C@H](O)/C=C/[C@@H]1[C@H]2C/C(=C/CCCC(=O)O)O[C@H]2C[C@H]1O [prostacyclin]
systemic vasodilation and hypotension ([3]; coronary bypass surgery): severe systemic vasodilation and hypotension

NNc1nncc2ccccc12 [hydralazine]
heart rate ([3]; in vivo): increase heart rate
